Results on one compound are retold here after paper PMC7770833, “Design, Synthesis, and Biological Evaluation of a Series of Oxazolone Carboxamides as a Novel Class of Acid Ceramidase Inhibitors” (Journal of Medicinal Chemistry, 2020).

One assay has as its target T1, hAC (Homo sapiens, UniProt Q13510).
T1 sequence (Q13510 22-395): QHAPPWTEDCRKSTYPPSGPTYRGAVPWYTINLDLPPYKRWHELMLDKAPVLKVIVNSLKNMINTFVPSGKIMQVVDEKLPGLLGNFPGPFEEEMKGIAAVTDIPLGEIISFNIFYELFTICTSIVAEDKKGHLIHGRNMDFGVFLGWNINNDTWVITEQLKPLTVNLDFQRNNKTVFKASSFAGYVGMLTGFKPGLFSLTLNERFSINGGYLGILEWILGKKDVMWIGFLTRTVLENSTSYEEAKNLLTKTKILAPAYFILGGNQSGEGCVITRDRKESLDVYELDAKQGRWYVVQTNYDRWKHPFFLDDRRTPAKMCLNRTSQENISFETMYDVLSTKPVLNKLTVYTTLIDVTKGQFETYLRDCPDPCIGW
The assay is described as follows: hAC LC/MS-based activity assay in SH-SY5Y cells. The arrangement: host or cells: SH-SY5Y human neuroblastoma cells. It is filed as cell-based. The following applies: 1, 2.5, 5, 10 μM for 3 h; 10 μM for 1, 3, 6 h. As to the method: SH-SY5Y cells were purchased from Sigma Aldrich (Italy) and cultured in DMEM containing 10% FBS at 37 °C and 5% CO2. Drugs were dissolved in DMSO (10 mM) and diluted in cell culture medium with reduced serum (1%) for cell treatments.
hAC activity measurement was performed as previously described.[59],[61] Total lysates from cells were diluted in assay buffer (100 mM sodium phosphate, 0.1% Nonidet P-40, 150 mM NaCl, 3 mM DTT, 100 mM sodium citrate, pH 4.5). Reactions were started by the addition of 50 μM N-lauroyl ceramide (Nu-Chek Prep, Elysian, MN) and carried out for 1 h at 37 °C. Reactions were stopped by the addition of a mixture of CHCl3/MeOH (2:1) spike with 11-lauroleic acid (1.0 nmol, NuChek Prep). The organic phases were collected, dried under N2, and analyzed by UPLC/MS (Acquity, Waters) in the negative-ion mode monitoring the reaction product (lauric acid, m/z: 199) using 11-lauroleic acid as the internal standard. Lipids were eluted on an Acquity UPLC BEH C18 column (50 mm length, 2.1 mm ID, 1.7 μm pore size, Waters) column at 0.5 mL/min for 1.5 min with a gradient of CH3CN and H2O, both containing 0.25% AcOH and 5 mM NH4OAc (70–100% CH3CN in 0.5 min, 100% CH3CN for 0.5 min, 70% CH3CN for 0.4 min). The column temperature was 40 °C. […] The [M – H]^− ion was monitored in the selected-ion monitoring mode (m/z values: lauric acid 199, 11-lauroleic acid 197.35). […]

In assay [1] the target is T2, human N-acylethanolamine acid amidase (hNAAA) (Homo sapiens, UniProt Q02083).
T2 construct: expressed in transfected cells; lysosome-enriched lysate
T2 sequence (Q02083 29-359): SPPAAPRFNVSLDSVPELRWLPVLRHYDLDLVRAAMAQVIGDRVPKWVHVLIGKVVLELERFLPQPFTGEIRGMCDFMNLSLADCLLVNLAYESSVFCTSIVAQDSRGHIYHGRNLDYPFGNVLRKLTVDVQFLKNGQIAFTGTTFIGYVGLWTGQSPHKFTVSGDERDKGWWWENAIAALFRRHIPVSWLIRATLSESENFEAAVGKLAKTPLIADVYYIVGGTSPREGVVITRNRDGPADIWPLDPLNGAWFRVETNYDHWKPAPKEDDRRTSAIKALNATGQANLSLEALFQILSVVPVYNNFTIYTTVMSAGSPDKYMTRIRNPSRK
The assay is described as follows: Fluorogenic hNAAA assay. It is filed as biochemical. The following applies: at up to 125 μM. As to the method: HEK-293 cells stably transfected with the hNAAA coding sequence cloned from a human spleen cDNA library (catalog no. 639124, Clontech, Mountain View, CA, USA) were used as the enzyme source. Cells were grown in DMEM containing 10% FBS, 1% glutamine, 1 mM sodium pyruvate, and 500 μg/mL G418. Cells were harvested and pellets were stored at −80 °C until lysosomal-enriched lysate preparation. Cells were suspended in 20 mM Tris HCl (pH 7.4) with 0.32 M sucrose, sonicated, and centrifuged at 800 × g for 30 min at 4 °C. Supernatants were then ultracentrifuged at 12 000 × g for 30 min at 4 °C. Pellets were re-suspended in PBS buffer (pH 7.4) and subjected to three freeze–thaw cycles at −80 °C. The suspension was finally ultracentrifuged at 105 000 × g for 1 h at 4 °C, supernatants were collected, protein concentration was measured, and samples aliquoted and stored at −80 °C until use.
The assay was run in 96-well microplates (Black OptiPlate-96 F; PerkinElmer, Massachusetts, USA) in a total reaction volume of 200 μL. hNAAA protein preparation (4.0 μg) was pre-incubated for 30 min with various concentrations of test compounds or vehicle control (DMSO 5%) in 100 mM citrate/phosphate buffer (pH 4.5) containing 3.0 mM dithiothreitol (DTT), 0.1% NP40 0.1%, 0.05% bovine serum albumin, and 150 mM NaCl. […]

On to `CCCCCNC(=O)n1cc(-c2ccc(F)cc2C2CCN(C)CC2)oc1=O` [Compound 32b, 5-[4-Fluoro-2-(1-methyl-4-piperidyl)phenyl]-2-oxo-N-pentyl-oxazole-3-carboxamide], for which, at hAC, the “hAC activity in SH-SY5Y cells” value is on record as “time-dependent reduction”. Moreover, the “effect against hNAAA” value in assay [1] is “no effect”.
